According to USRE48461E1, “Modulation of androgen receptor expression” (Ionis Pharmaceuticals, Inc., priority 2012, dated 2021):

Tests used:
LNCaP cells = test: LNCaP cell proliferation, ASO in combination with MDV3100 (Example 20); assay type: cell-based, human; settings: for Proliferation (% untreated control) in LNCaP without MDV-3100: 5 days
Experimental: LNCaP cells were plated at 1,000 cells per well. […] ISIS 549148 was included as a negative control. […] After a treatment period of 5 days, the proliferative capacity of the cancer cells was measured with CellTiter 96® AQueous One or CellTiter-Glo® Solution Cell Proliferation kit (Promega), following the manufacturer's instructions. […]

MDA-MB-453 tumor = test: Tumor volume in MDA-MB-453 breast cancer orthotopic model; assay type: in vivo, NSG mice; settings: Study 2, MDA-MB-453 model, NSG mice, 50 mg/kg s.c. 5 days per week for 2 weeks
22RV1 cells = test: 22RV1 apoptosis (Caspase-glo 3/7); assay type: cell-based, human; settings: 22RV1 cells, 72 hours
Experimental: After a treatment period of 72 hours in complete medium or CSS+DHT medium, apoptosis of the cancer cells was measured with Caspase-glo 3/7 assay kit (Promega). Results are presented in Tables 131 and 132 as percent apoptosis of the cells, relative to non-treated cells.

TMPRSS2 mRNA = test: TMPRSS2 expression in C4-2B cells (Example 30); assay type: cell-based, human; settings: 48 hrs
Experimental: Cells were plated at 1,000 cells per well. […] ISIS 549148 was included as a negative control. […] After an incubation period of 48 hrs, RNA levels of AR, PSA and TMPRSS2 were measured.
Cells were plated at 2,000 cells per well and cultured in CSS media with 1 nM DHT. […] ISIS 549148 was included as a negative control. […] After an incubation period of 48 hrs, RNA levels of AR, PSA and TMPRSS2 were measured. In the absence of DHT, AR expression in C4-2 cells was 188%, PSA expression was 43% and TMPRSS2 expression was 27% compared to the untreated control.

PSA mRNA = test: PSA expression in VCaP cells; assay type: cell-based, human; settings: RNAiMax, 48 hrs
Experimental: Cells were plated at 10,000 cells per well. […] After an incubation period of 48 hrs, RNA levels of full length AR, the V7 variant, PSA and TMPRSS2 were measured.
After an incubation period of 48 hrs, RNA levels of full length AR, the V7 variant, PSA and TMPRSS2 were measured. The data is presented in Tables 108 expressed as percent expression of gene levels compared to the untreated control.
Cells were plated at 15,000 cells per well and cultured in CSS media for 16 hours. […] After 4 hrs, 1 nM DHT was added. […] After an incubation period of 48 hrs, RNA levels of AR, PSA and TMPRSS2 were measured.

[1] = test system: prostate-specific antigen (PSA) mRNA; test: Time-course PSA expression in C4-2B cells; assay type: cell-based, human
Experimental: C4-2B cells were plated at 1,000 cells per well in complete medium. […] ISIS 549148 was included as a negative control. […] After a treatment period of 8 hours, 24 hours, and 48 hours, AR expression was measured with primer probe set hAR-LTS00943. Results are presented in Tables 70-72 as percent expression of AR, relative to non-treated cells.
Expression analysis of prostate-specific antigen (PSA) and TMPRSS2 were also analyzed. Results are presented in Tables 73-75 as percent inhibition of PSA expression and Tables 76-78 as percent inhibition of TMPRSS2 expression, relative to non-treated cells.

## GGCTACTACGCCGTCA (3-10-3 (S)-cEt gapmer, chemistry not fully specified) [ISIS 549148, reference compound]
LNCaP cells; ASO dose 0.04 μM + 0.08 μM MDV-3100
  Proliferation (% untreated control) in LNCaP with 0.08 μM MDV-3100: 101 % untreated control
LNCaP cells; ASO dose 0.04 μM + 0.4 μM MDV-3100
  Proliferation (% untreated control) in LNCaP with 0.4 μM MDV-3100: 57 % untreated control
LNCaP cells; ASO dose 0.04 μM + 2.0 μM MDV-3100
  Proliferation (% untreated control) in LNCaP with 2.0 μM MDV-3100: 42 % untreated control
LNCaP cells; ASO dose 0.04 μM + […] MDV-3100
  Proliferation (% untreated control) in LNCaP with […] MDV-3100: 86 % untreated control
LNCaP cells; ASO dose 0.04 μM
  Proliferation (% untreated control) in LNCaP without MDV-3100: 101 % untreated control
LNCaP cells; ASO dose 0.08 μM + 0.08 μM MDV-3100
  Proliferation (% untreated control) in LNCaP with 0.08 μM MDV-3100: 93 % untreated control
LNCaP cells; ASO dose 0.08 μM + 0.4 μM MDV-3100
  Proliferation (% untreated control) in LNCaP with 0.4 μM MDV-3100: 65 % untreated control
LNCaP cells; ASO dose 0.08 μM + 2.0 μM MDV-3100
  Proliferation (% untreated control) in LNCaP with 2.0 μM MDV-3100: 39 % untreated control
LNCaP cells; ASO dose 0.08 μM + […] MDV-3100
  Proliferation (% untreated control) in LNCaP with […] MDV-3100: 106 % untreated control
LNCaP cells; ASO dose 0.08 μM
  Proliferation (% untreated control) in LNCaP without MDV-3100: 104 % untreated control
LNCaP cells; ASO dose 0.2 μM + 0.08 μM MDV-3100
  Proliferation (% untreated control) in LNCaP with 0.08 μM MDV-3100: 89 % untreated control
LNCaP cells; ASO dose 0.2 μM + 0.4 μM MDV-3100
  Proliferation (% untreated control) in LNCaP with 0.4 μM MDV-3100: 50 % untreated control
LNCaP cells; ASO dose 0.2 μM + 2.0 μM MDV-3100
  Proliferation (% untreated control) in LNCaP with 2.0 μM MDV-3100: 41 % untreated control
LNCaP cells; ASO dose 0.2 μM + […] MDV-3100
  Proliferation (% untreated control) in LNCaP with […] MDV-3100: 83 % untreated control
LNCaP cells; ASO dose 0.2 μM
  Proliferation (% untreated control) in LNCaP without MDV-3100: 91 % untreated control
LNCaP cells; ASO dose 1.0 μM + 0.08 μM MDV-3100
  Proliferation (% untreated control) in LNCaP with 0.08 μM MDV-3100: 90 % untreated control
LNCaP cells; ASO dose 1.0 μM + 0.4 μM MDV-3100
  Proliferation (% untreated control) in LNCaP with 0.4 μM MDV-3100: 48 % untreated control
LNCaP cells; ASO dose 1.0 μM + 2.0 μM MDV-3100
  Proliferation (% untreated control) in LNCaP with 2.0 μM MDV-3100: 32 % untreated control
LNCaP cells; ASO dose 1.0 μM + […] MDV-3100
  Proliferation (% untreated control) in LNCaP with […] MDV-3100: 59 % untreated control
LNCaP cells; ASO dose 1.0 μM
  Proliferation (% untreated control) in LNCaP without MDV-3100: 82 % untreated control
MDA-MB-453 tumor; Day 0
  Tumor volumes: 148
MDA-MB-453 tumor; Day 8
  Tumor volumes: 303
MDA-MB-453 tumor; Day 13
  Tumor volumes: 312
MDA-MB-453 tumor; Day 20
  Tumor volumes: 365
MDA-MB-453 tumor; Day 23
  Tumor volumes: 413
MDA-MB-453 tumor; Day 27
  Tumor volumes: 490
MDA-MB-453 tumor; Day 29
  Tumor volumes: 550
22RV1 cells; CSS + DHT medium, 1.34 nM
  Apoptosis (% untreated control): 113 % untreated control
22RV1 cells; CSS + DHT medium, 4.0 nM
  Apoptosis (% untreated control): 94 % untreated control
22RV1 cells; CSS + DHT medium, 13.4 nM
  Apoptosis (% untreated control): 102 % untreated control
22RV1 cells; CSS + DHT medium, 40 nM
  Apoptosis (% untreated control): 108 % untreated control
22RV1 cells; complete medium, 1.34 nM
  Apoptosis (% untreated control): 81 % untreated control
22RV1 cells; complete medium, 4.0 nM
  Apoptosis (% untreated control): 76 % untreated control
22RV1 cells; complete medium, 13.4 nM
  Apoptosis (% untreated control): 72 % untreated control
22RV1 cells; complete medium, 40 nM
  Apoptosis (% untreated control): 123 % untreated control
TMPRSS2 mRNA; CSS + DHT medium, 0.04 μM
  Percent inhibition of TMPRSS2 expression: 0%
TMPRSS2 mRNA; CSS + DHT medium, 0.2 μM
  Percent inhibition of TMPRSS2 expression: 0%
TMPRSS2 mRNA; CSS + DHT medium, 1 μM
  Percent inhibition of TMPRSS2 expression: 0%
TMPRSS2 mRNA; CSS + DHT medium, 5.0 μM
  Percent inhibition of TMPRSS2 expression: 3%
TMPRSS2 mRNA; complete medium, 0.04 μM
  Percent inhibition of TMPRSS2 expression: 0%
TMPRSS2 mRNA; complete medium, 0.2 μM
  Percent inhibition of TMPRSS2 expression: 2%
TMPRSS2 mRNA; complete medium, 1 μM
  Percent inhibition of TMPRSS2 expression: 4%
TMPRSS2 mRNA; complete medium, 5.0 μM
  Percent inhibition of TMPRSS2 expression: 0%
PSA mRNA; CSS + DHT medium, 1.34 nM
  Percent inhibition of PSA expression: 0%
PSA mRNA; CSS + DHT medium, 4.0 nM
  Percent inhibition of PSA expression: 3%
PSA mRNA; CSS + DHT medium, 13.4 nM
  Percent inhibition of PSA expression: 9%
PSA mRNA; CSS + DHT medium, 40 nM
  Percent inhibition of PSA expression: 0%
PSA mRNA; complete medium, 1.34 nM
  Percent inhibition of PSA expression: 2%
PSA mRNA; complete medium, 4.0 nM
  Percent inhibition of PSA expression: 0%
PSA mRNA; complete medium, 13.4 nM
  Percent inhibition of PSA expression: 0%
PSA mRNA; complete medium, 40 nM
  Percent inhibition of PSA expression: 20%
[1]; 0.04 μM
  Percent inhibition of PSA expression compared to the control group in 8 hours: 1%
  Percent inhibition of PSA expression compared to the control group in 24 hours: 22%
  Percent inhibition of PSA expression compared to the control group in 48 hours: 2%
[1]; 0.2 μM
  Percent inhibition of PSA expression compared to the control group in 8 hours: 8%
  Percent inhibition of PSA expression compared to the control group in 24 hours: 13%
  Percent inhibition of PSA expression compared to the control group in 48 hours: 0%
[1]; 1 μM
  Percent inhibition of PSA expression compared to the control group in 8 hours: 8%
  Percent inhibition of PSA expression compared to the control group in 24 hours: 16%
  Percent inhibition of PSA expression compared to the control group in 48 hours: 18%
[1]; 5.0 μM
  Percent inhibition of PSA expression compared to the control group in 8 hours: 0%
  Percent inhibition of PSA expression compared to the control group in 24 hours: 6%
  Percent inhibition of PSA expression compared to the control group in 48 hours: 10%
